Measured values as given in ChEMBL document CHEMBL1155290, “Synthesis and anti-HIV activity evaluation of 2-(4-(naphthalen-2-yl)-1,2,3-thiadiazol-5-ylthio)-N-acetamides as novel non-nucleoside HIV-1 reverse transcriptase inhibitors” (Eur J Med Chem, 2009).

Tests used:
[1] = Selective index, ratio of CC50 for human MT4 cells to EC50 for HIV1 3B
[2] = Cytotoxicity against human MT4 cells as reduction in cell viability after 5 days by MTT assay; assay type: cell-based

**Q.** Which results are given for `CC(C)Nc1cccnc1N1CCN(C(=O)c2cc3cc(NS(C)(=O)=O)ccc3[nH]2)CC1` [DELAVIRDINE]?
**A.** Ratio CC50/EC50 [1]: >12; CC50 at 120 h [2]: > 3.83 µM

**Q.** Which results are given for `O=C1Nc2ccc(Cl)cc2[C@@](C#CC2CC2)(C(F)(F)F)O1` [EFAVIRENZ]?
**A.** Ratio CC50/EC50 [1]: >1434; CC50 at 120 h [2]: > 6.34 µM

**Q.** Which results are given for `Cc1cn([C@H]2C[C@H](N=[N+]=[N-])[C@@H](CO)O2)c(=O)[nH]c1=O` [ZIDOVUDINE]?
**A.** Ratio CC50/EC50 [1]: >6192; CC50 at 120 h [2]: > 93.5 µM

**Q.** For `Cc1ccnc2c1NC(=O)c1cccnc1N2C1CC1` [NEVIRAPINE], which CC50 at 120 h [2] is on record?
**A.** Its CC50 at 120 h is > 15 µM.
